Assay results reported in patent publication US20230136297A1, “Methods Of Treating Fabry Disease In Patients Having A Mutation In The GLA Gene” (Amicus Therapeutics, Inc., priority 2020, published 2023).
Where a chain is given by its changes, count along the chain named.

Assays:
Assay in all cases: α-Gal A activity in lysates of transfected HEK-293 cells ± migalastat (HEK assay)
Type in all cases: cell-based
[1] = target: T1, α-Gal A mutant form I133F (Homo sapiens, UniProt P06280, I133F)
T1 construct: expressed in transfected cells; host or cells: HEK-293
T1 sequence (P06280 32-429 I133F): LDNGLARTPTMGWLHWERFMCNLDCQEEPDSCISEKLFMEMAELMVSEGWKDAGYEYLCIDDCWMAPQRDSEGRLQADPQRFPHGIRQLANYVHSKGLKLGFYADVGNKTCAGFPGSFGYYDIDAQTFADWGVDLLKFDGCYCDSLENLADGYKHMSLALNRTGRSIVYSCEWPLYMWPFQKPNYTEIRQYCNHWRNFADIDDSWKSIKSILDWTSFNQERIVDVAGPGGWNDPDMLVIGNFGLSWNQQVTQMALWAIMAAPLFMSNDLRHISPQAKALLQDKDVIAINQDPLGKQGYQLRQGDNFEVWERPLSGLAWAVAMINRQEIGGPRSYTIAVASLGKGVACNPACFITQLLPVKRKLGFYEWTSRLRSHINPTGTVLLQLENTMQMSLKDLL
Method in brief: (§1)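 Activity is reported as nmol of free 4-MU released per mg protein per hour (nmol/mg/hr).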

[2] = target: T2, α-Gal A mutant form R196T (Homo sapiens, UniProt P06280, R196T)
T2 construct: expressed in transfected cells; host or cells: HEK-293
T2 sequence (P06280 32-429 R196T): T1 sequence (P06280 32-429 I133F) with F102I, R165T
Method in brief: as §1

[3] = target: T3, α-Gal A mutant form D165N (Homo sapiens, UniProt P06280, D165N)
T3 construct: expressed in transfected cells; host or cells: HEK-293
T3 sequence (P06280 32-429 D165N): T1 sequence (P06280 32-429 I133F) with F102I, D134N
Method in brief: as §1

[4] = target: T4, α-Gal A mutant form L394P (Homo sapiens, UniProt P06280, L394P)
T4 construct: expressed in transfected cells; host or cells: HEK-293
T4 sequence (P06280 32-429 L394P): T1 sequence (P06280 32-429 I133F) with F102I, L363P
Method in brief: as §1

[5] = target: T5, α-Gal A mutant form G360R (Homo sapiens, UniProt P06280, G360R)
T5 construct: expressed in transfected cells; host or cells: HEK-293
T5 sequence (P06280 32-429 G360R): T1 sequence (P06280 32-429 I133F) with F102I, G329R
Method in brief: as §1

[6] = 10 μM migalastat minus baseline
[7] = HEK-293 lysates, 10 μM migalastat 5 days, mean ± SEM

## OC[C@H]1NC[C@H](O)[C@@H](O)[C@H]1O [migalastat, (2R,3S,4R,5S)-2-(hydroxymethyl) piperdine-3,4,5-triol]
[1]; [6]
  Absolute increase (% WT): 3.1 % WT
[1]; 10 μM migalastat ÷ baseline
  Relative increase: 5.27
[1]; [7]
  10 μM migalastat α-Gal A activity: 1542 ± 154 nmol/mg/h
  10 μM migalastat α-Gal A activity (% WT): 3.8 ± 0.3 % WT
[2]; [6]
  Absolute increase (% WT): 22.4 % WT
[2]; 10 μM migalastat ÷ baseline
  Relative increase: 1.48
[2]; [7]
  10 μM migalastat α-Gal A activity: 26217 ± 1611 nmol/mg/h
  10 μM migalastat α-Gal A activity (% WT): 69.5 ± 2.6 % WT
[3]; [6]
  Absolute increase (% WT): 34 % WT
[3]; 10 μM migalastat ÷ baseline
  Relative increase: 6.86
[3]; [7]
  10 μM migalastat α-Gal A activity: 10562 ± 1017 nmol/mg/h
  10 μM migalastat α-Gal A activity (% WT): 40 ± 2.7 % WT
[4]; [6]
  Absolute increase (% WT): 7.2 % WT
[4]; 10 μM migalastat ÷ baseline
  Relative increase: 1.52
[4]; [7]
  10 μM migalastat α-Gal A activity: 7749 ± 582 nmol/mg/h
  10 μM migalastat α-Gal A activity (% WT): 22.3 ± 2.4 % WT
[5]; [6]
  Absolute increase (% WT): 3 % WT
[5]; 10 μM migalastat ÷ baseline
  Relative increase: 3.65
[5]; [7]
  10 μM migalastat α-Gal A activity: 1418 ± 93 nmol/mg/h
  10 μM migalastat α-Gal A activity (% WT): 4.0 ± 0.3 % WT
